{"source": "paper PMC6797481", "about": "“Identification of an allosteric binding site on the human glycine transporter, GlyT2, for bioactive lipid analgesics” (eLife, 2019)", "key": {"GlyT1 WT": {"test_system": "GlyT1 WT", "set-up": "method as in earlier work", "details": "previously published; cited from earlier work"}, "GlyT2 Y550L mutant": {"biological_target": "T1, GlyT2 Y550L mutant (Homo sapiens, UniProt Q9Y345, Y550L)", "T1 construct": "expressed in transfected cells; host or cells: Xenopus laevis oocytes (cRNA injection)", "T1 sequence (Q9Y345 1-797 Y550L)": "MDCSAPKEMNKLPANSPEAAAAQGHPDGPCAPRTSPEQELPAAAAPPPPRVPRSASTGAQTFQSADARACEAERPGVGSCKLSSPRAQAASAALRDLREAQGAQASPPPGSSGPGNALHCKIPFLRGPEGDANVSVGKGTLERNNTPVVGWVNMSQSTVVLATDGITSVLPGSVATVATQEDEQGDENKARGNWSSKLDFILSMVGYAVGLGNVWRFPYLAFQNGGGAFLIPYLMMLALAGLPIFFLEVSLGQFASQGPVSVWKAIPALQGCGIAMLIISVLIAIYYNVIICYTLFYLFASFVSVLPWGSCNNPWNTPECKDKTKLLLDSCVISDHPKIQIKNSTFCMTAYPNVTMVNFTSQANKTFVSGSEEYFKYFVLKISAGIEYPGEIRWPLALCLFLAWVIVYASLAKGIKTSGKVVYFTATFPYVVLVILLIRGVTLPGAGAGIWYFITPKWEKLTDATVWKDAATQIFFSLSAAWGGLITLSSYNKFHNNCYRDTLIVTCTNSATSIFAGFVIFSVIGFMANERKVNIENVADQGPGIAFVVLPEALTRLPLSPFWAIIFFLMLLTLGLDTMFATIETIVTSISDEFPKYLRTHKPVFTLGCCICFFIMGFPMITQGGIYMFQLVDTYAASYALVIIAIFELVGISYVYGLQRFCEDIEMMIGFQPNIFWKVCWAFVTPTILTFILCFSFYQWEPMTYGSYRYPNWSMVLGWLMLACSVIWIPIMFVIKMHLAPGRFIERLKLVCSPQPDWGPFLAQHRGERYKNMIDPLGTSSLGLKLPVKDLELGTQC", "test": "Glycine transport currents, two electrode voltage clamp, oocytes expressing GlyT2 Y550L", "type": "cell-based", "details": "for % Max. inhibition: mean ± SEM", "method": "(§1) Glycine was first applied to establish maximal transport current.\n(§2) Compounds were tested for inhibition of glycine transport on Xenopus laevis oocytes expressing mutant GlyT1 and GlyT2 transporters. n values are in brackets, with measurements taken from at least 2 batches of oocytes."}, "GlyT2 P561S mutant": {"biological_target": "T2, GlyT2 P561S mutant (Homo sapiens, UniProt Q9Y345, P561S)", "T2 construct": "expressed in transfected cells; host or cells: Xenopus laevis oocytes (cRNA injection)", "T2 sequence (Q9Y345 1-797 P561S)": "T1 sequence (Q9Y345 1-797 Y550L) with L550Y, P561S", "test": "Glycine transport currents, two electrode voltage clamp, oocytes expressing GlyT2 P561S", "type": "cell-based", "details": "for IC50 / % Max. inhibition: GlyT2 P561S; for % Max. inhibition: mean ± SEM", "method": "as §1, §2"}, "GlyT2 WT": {"biological_target": "T3, GlyT2 WT (Homo sapiens, UniProt Q9Y345)", "T3 sequence (Q9Y345 1-797)": "T1 sequence (Q9Y345 1-797 Y550L) with L550Y", "set-up": "expressed in transfected cells; host or cells: Xenopus laevis oocytes (cRNA injection)", "details": "cited from earlier work; for IC50 / GlyT2 % max. inhibition: WT GlyT2, previously published; for IC50: mean (95% CI); for GlyT2 % max. inhibition: mean ± SEM; for mechanism of inhibition: versus substrate glycine, ref Mostyn et al., 2019, Wiles et al., 2006"}, "[1]": {"details": "GlyT2 Y550L, greater than maximum concentration applied (footnote a)"}}, "note": "Where a chain is given by its changes, count along the chain named."}
{"compound": "CCCCCCCC/C=C\\CCCCCCCC(=O)N[C@H](C(=O)O)C(C)C", "note": "[oleoyl l-Valine]", "values": [{"measurement": "IC50", "setting": "GlyT1 WT", "value": "> 30", "unit": "µM"}, {"measurement": "IC50", "setting": "GlyT2 Y550L mutant; GlyT2 Y550L, mean (95% CI)", "value": 2.93, "unit": "µM"}, {"measurement": "% Max. inhibition", "setting": "GlyT2 Y550L mutant; GlyT2 Y550L", "value": "57.0 ± 5.1 (p=0.0028) %"}, {"measurement": "IC50", "setting": "GlyT2 P561S mutant; mean (95% CI)", "value": 0.753, "unit": "µM"}, {"measurement": "% Max. inhibition", "setting": "GlyT2 P561S mutant", "value": "94.5 ± 4.7 (p=0.9462) %"}, {"measurement": "IC50", "setting": "GlyT2 WT", "value": 1.17, "unit": "µM"}, {"measurement": "GlyT2 % max. inhibition", "setting": "GlyT2 WT", "value": "90.9 ± 5.9", "unit": "%"}]}
{"compound": "oleoyl d-Lysine", "values": [{"measurement": "IC50", "setting": "GlyT1 WT", "value": "> 3", "unit": "µM"}, {"measurement": "IC50", "setting": "GlyT2 Y550L mutant; [1]", "value": "> 3", "unit": "µM"}, {"measurement": "% Max. inhibition", "setting": "GlyT2 Y550L mutant; GlyT2 Y550L", "value": "38.4 ± 10.0 (p=0.0010) %"}, {"measurement": "IC50", "setting": "GlyT2 P561S mutant; mean (95% CI)", "value": 0.558, "unit": "µM"}, {"measurement": "% Max. inhibition", "setting": "GlyT2 P561S mutant", "value": "76.7 ± 8.1 (p=0.4299) %"}, {"measurement": "IC50", "setting": "GlyT2 WT", "value": 0.0483, "unit": "µM"}, {"measurement": "GlyT2 % max. inhibition", "setting": "GlyT2 WT", "value": "91.0 ± 1.9", "unit": "%"}]}
{"compound": "CCCCCCCC/C=C\\CCCCCCCC(=O)N[C@@H](CCCCN)C(=O)O", "note": "[oleoyl l-Lysine]", "values": [{"measurement": "IC50", "setting": "GlyT1 WT", "value": "> 3", "unit": "µM"}, {"measurement": "IC50", "setting": "GlyT2 Y550L mutant; GlyT2 Y550L, mean (95% CI)", "value": 0.21, "unit": "µM"}, {"measurement": "% Max. inhibition", "setting": "GlyT2 Y550L mutant; GlyT2 Y550L", "value": "48.2 ± 4.1 (p=0.0001) %"}, {"measurement": "IC50", "setting": "GlyT2 P561S mutant; mean (95% CI)", "value": 0.0692, "unit": "µM"}, {"measurement": "% Max. inhibition", "setting": "GlyT2 P561S mutant", "value": "71.5 ± 4.8 (p=0.0758) %"}, {"measurement": "GlyT2 % max. inhibition", "setting": "GlyT2 WT", "value": "86.8 ± 2.4", "unit": "%"}, {"measurement": "mechanism of inhibition", "setting": "GlyT2 WT", "value": "not competitive"}]}
{"compound": "CCCCCCCC/C=C\\CCCCCCCC(=O)N[C@@H](Cc1c[nH]c2ccccc12)C(=O)O", "note": "[oleoyl l-Tryptophan]", "values": [{"measurement": "IC50", "setting": "GlyT1 WT", "value": "> 10", "unit": "µM"}, {"measurement": "IC50", "setting": "GlyT2 Y550L mutant; [1]", "value": "> 3", "unit": "µM"}, {"measurement": "% Max. inhibition", "setting": "GlyT2 Y550L mutant; GlyT2 Y550L", "value": "16.5 ± 1.7 (p=0.0001) %"}, {"measurement": "IC50", "setting": "GlyT2 P561S mutant; mean (95% CI)", "value": 0.318, "unit": "µM"}, {"measurement": "% Max. inhibition", "setting": "GlyT2 P561S mutant", "value": "61.4 ± 4.2 (p=0.0001) %"}, {"measurement": "GlyT2 % max. inhibition", "setting": "GlyT2 WT", "value": "86.2 ± 3.8", "unit": "%"}]}
{"compound": "CCCCCCCC/C=C\\CCCCCCCC(=O)O[C@H](CC(=O)[O-])C[N+](C)(C)C", "note": "[oleoyl L-Carnitine, reference compound]", "values": [{"measurement": "IC50", "setting": "GlyT1 WT", "value": "> 10", "unit": "µM"}, {"measurement": "IC50", "setting": "GlyT2 Y550L mutant; [1]", "value": "> 3", "unit": "µM"}, {"measurement": "% Max. inhibition", "setting": "GlyT2 Y550L mutant; GlyT2 Y550L", "value": "17.3 ± 1.4 (p=0.0001) %"}, {"measurement": "IC50", "setting": "GlyT2 P561S mutant; greater than maximum concentration applied (footnote a)", "value": "> 3", "unit": "µM"}, {"measurement": "% Max. inhibition", "setting": "GlyT2 P561S mutant", "value": "31.6 ± 5.2 (p=0.0001) %"}, {"measurement": "IC50", "setting": "GlyT2 WT", "value": 0.34, "unit": "µM"}, {"measurement": "GlyT2 % max. inhibition", "setting": "GlyT2 WT", "value": "71.5 ± 5.7", "unit": "%"}]}
{"compound": "CCCCCCCC/C=C\\CCCCCCCC(=O)N[C@@H](CC(=O)O)C(=O)O", "note": "[oleoyl l-Aspartate]", "values": [{"measurement": "IC50", "setting": "GlyT1 WT", "value": "> 10", "unit": "µM"}, {"measurement": "% Max. inhibition (% inhibition at the highest concentration of inhibitor used)", "setting": "GlyT2 Y550L mutant; GlyT2 Y550L, footnote b", "value": "7.0 ± 0.8^b (p=0.0001) %"}, {"measurement": "IC50", "setting": "GlyT2 Y550L mutant; [1]", "value": "> 3", "unit": "µM"}, {"measurement": "IC50", "setting": "GlyT2 P561S mutant; mean (95% CI)", "value": 2.54, "unit": "µM"}, {"measurement": "% Max. inhibition", "setting": "GlyT2 P561S mutant", "value": "58.2 ± 4.7 (p=0.0954) %"}, {"measurement": "IC50", "setting": "GlyT2 WT", "value": 0.865, "unit": "µM"}, {"measurement": "GlyT2 % max. inhibition", "setting": "GlyT2 WT", "value": "76.7 ± 5.3", "unit": "%"}]}
{"compound": "NCC(=O)O", "note": "[Glycine]", "values": [{"measurement": "EC50", "setting": "GlyT2 Y550L mutant; glycine transport, GlyT2 Y550L (EL4)", "value": "62.2 ± 11.4", "unit": "µM"}, {"measurement": "EC50", "setting": "GlyT2 P561S mutant; glycine transport, GlyT2 P561S (TM8)", "value": "15.5 ± 4.1", "unit": "µM"}]}
{"compound": "CCCCC/C=C\\C/C=C\\C/C=C\\C/C=C\\CCCC(=O)NCC(=O)O", "note": "[N-arachidonyl Glycine, reference compound]", "values": [{"measurement": "IC50", "setting": "GlyT1 WT", "value": "> 10", "unit": "µM"}, {"measurement": "IC50", "setting": "GlyT2 WT", "value": 9.1, "unit": "µM"}, {"measurement": "GlyT2 % max. inhibition", "setting": "GlyT2 WT", "value": "79.6 ± 2.1", "unit": "%"}, {"measurement": "mechanism of inhibition", "setting": "GlyT2 WT", "value": "not competitive"}]}
{"compound": "CCCCCCCC/C=C\\CCCCCCCC(=O)NCC(=O)O", "note": "[N-oleoyl Glycine, reference compound]", "values": [{"measurement": "IC50", "setting": "GlyT1 WT", "value": "> 10", "unit": "µM"}, {"measurement": "IC50", "setting": "GlyT2 Y550L mutant; GlyT2 Y550L, mean (95% CI)", "value": 0.829, "unit": "µM"}, {"measurement": "% Max. inhibition", "setting": "GlyT2 Y550L mutant; GlyT2 Y550L", "value": "34.8 ± 9.1 (p=0.0011) %"}, {"measurement": "IC50", "setting": "GlyT2 P561S mutant; mean (95% CI)", "value": 0.564, "unit": "µM"}, {"measurement": "% Max. inhibition", "setting": "GlyT2 P561S mutant", "value": "62.1 ± 4.8 (p=0.9242) %"}, {"measurement": "IC50", "setting": "GlyT2 WT", "value": 0.5, "unit": "µM"}, {"measurement": "GlyT2 % max. inhibition", "setting": "GlyT2 WT", "value": "66.8 ± 2.8", "unit": "%"}]}
